For 17 molecules, T/C results are on record in PubChem BioAssay AID248 (DTP/NCI, 2004).

The test relates to L1210 leukemia ip in BDF1 mice, survival T/C. The test can be described thus: NCI In Vivo Anticancer Drug Screen. Data for tumor model L1210 Leukemia (intraperitoneal) in B6D2F1 (BDF1) mice. The following applies: higher = longer survival. The procedure, abridged:
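Transplanted-tumor mice were given test agent; controls received vehicle only. Survival readings from the two groups were divided (treated over control).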

The mark [1] stands for this setting: endpoint: mean survival time, dose: 100.0 mg/kg/injection, schedule: Q04DX003 (ip), vehicle: Klucel (hydroxypropylcellulose) (HPC).
The mark [2] stands for this setting: endpoint: mean survival time, dose: 100.0 mg/kg/injection, schedule: Q01DX001 (ip), vehicle: saline.
Where [3] appears, read: endpoint: mean survival time, dose: 200.0 mg/kg/injection, schedule: Q01DX001 (ip), vehicle: saline.
[4] abbreviates: endpoint: mean survival time, dose: 400.0 mg/kg/injection, schedule: Q01DX001 (ip), vehicle: saline.
Setting [5] is: endpoint: mean survival time, dose: 100.0 mg/kg/injection, schedule: Q01DX009 (ip), vehicle: saline with Tween-80.
Where [6] appears, read: endpoint: mean survival time, dose: 100.0 mg/kg/injection, schedule: Q04DX003 (ip), vehicle: saline with Tween-80.
Where [7] appears, read: endpoint: mean survival time, dose: 200.0 mg/kg/injection, schedule: Q01DX009 (ip), vehicle: saline with Tween-80.
Setting [8] is: endpoint: mean survival time, dose: 200.0 mg/kg/injection, schedule: Q04DX003 (ip), vehicle: saline with Tween-80.
The mark [9] stands for this setting: endpoint: mean survival time, dose: 400.0 mg/kg/injection, schedule: Q01DX009 (ip), vehicle: saline with Tween-80.
Where [10] appears, read: endpoint: mean survival time, dose: 400.0 mg/kg/injection, schedule: Q04DX003 (ip), vehicle: saline with Tween-80.
The mark [11] stands for this setting: endpoint: mean survival time, dose: 200.0 mg/kg/injection, schedule: Q04DX003 (ip), vehicle: Klucel (hydroxypropylcellulose) (HPC).
Setting [12] is: endpoint: mean survival time, dose: 400.0 mg/kg/injection, schedule: Q04DX003 (ip), vehicle: Klucel (hydroxypropylcellulose) (HPC).

Values joined by “and” are separate entries in the source; they are usually repeats but may differ in a detail not shown here. Identical values can stand only once. Inconclusive results and toxic doses are left out.

With `O=C1C=CC(=O)N1c1ccc(Br)cc1Cl`, the T/C was 91 % of control (endpoint: mean survival time, dose: 0.78 mg/kg/injection, schedule: Q04DX003 (ip), vehicle: saline); 101 % of control (endpoint: mean survival time, dose: 1.0 mg/kg/injection, schedule: Q01DX009 (ip), vehicle: saline); 93 % of control (endpoint: mean survival time, dose: 1.56 mg/kg/injection, schedule: Q04DX003 (ip), vehicle: saline); 110 % of control (endpoint: mean survival time, dose: 2.0 mg/kg/injection, schedule: Q01DX009 (ip), vehicle: saline); 106 % of control (endpoint: mean survival time, dose: 3.13 mg/kg/injection, schedule: Q04DX003 (ip), vehicle: saline); 89 % of control (endpoint: mean survival time, dose: 4.0 mg/kg/injection, schedule: Q01DX009 (ip), vehicle: saline). In addition, the T/C by setting is: (endpoint: mean survival time, dose: 25.0 mg/kg/injection, schedule: Q04DX003 (ip), vehicle: saline with Tween-80) 100 % of control; under setting [1], 93 % of control.

Turning to `C/C=C/C=C/CC`, the T/C runs as follows: under setting [2], 109 % of control; under setting [3], 102 % of control; under setting [4], 109 % of control.

For the molecule `CC(C)(C)C1=CC(=O)C=CC1=O`, the T/C reads like this: (endpoint: mean survival time, dose: 50.0 mg/kg/injection, schedule: Q01DX009 (ip), vehicle: water) 93 % of control; (endpoint: mean survival time, dose: 100.0 mg/kg/injection, schedule: Q01DX001 (ip), vehicle: water) 100 % of control; (endpoint: mean survival time, dose: 100.0 mg/kg/injection, schedule: Q01DX009 (ip), vehicle: water) 97 % of control; (endpoint: mean survival time, dose: 200.0 mg/kg/injection, schedule: Q01DX001 (ip), vehicle: water) 102 % of control.

As to `COC(=O)NC(CI)c1ccccc1` (stereo not drawn), the T/C is, setting by setting: (endpoint: mean survival time, dose: 75.0 mg/kg/injection, schedule: Q01DX001 (ip), vehicle: saline) 110 % of control; (endpoint: mean survival time, dose: 150.0 mg/kg/injection, schedule: Q01DX001 (ip), vehicle: saline) 110 % of control; (endpoint: mean survival time, dose: 300.0 mg/kg/injection, schedule: Q01DX001 (ip), vehicle: saline) 100 % of control.

For the molecule `C[n+]1ccccc1`, the T/C is, setting by setting: under setting [2], 94 % of control; under setting [3], 93 % of control; under setting [4], 104 % of control.

Take `O=[N+]([O-])c1cccnc1Oc1cc(Cl)c(Cl)cc1Cl`: the T/C reads like this: under setting [5], 107 % of control; under setting [6], 102 % of control; under setting [7], 107 % of control; under setting [8], 93 % of control; under setting [9], 100 % of control; under setting [10], 91 % of control.

`COc1ccc(CCNC(=O)CCN2C(=O)c3ccccc3C2=O)cc1OC`: the T/C was 115 % of control under setting [5]; 97 % of control under setting [6]; 115 % of control under setting [7]; 100 % of control under setting [8]; 113 % of control under setting [9]; 112 % of control under setting [10].

Consider `Cc1ccc(NC(=O)c2ccc(C)c(N)c2)c(C)c1`, for which the T/C by setting is: (endpoint: mean survival time, dose: 100.0 mg/kg/injection, schedule: Q01DX009 (ip), vehicle: gum acacia) 100 % of control; (endpoint: mean survival time, dose: 100.0 mg/kg/injection, schedule: Q04DX003 (ip), vehicle: gum acacia) 98 % of control; (endpoint: mean survival time, dose: 200.0 mg/kg/injection, schedule: Q01DX009 (ip), vehicle: gum acacia) 87 % of control; (endpoint: mean survival time, dose: 200.0 mg/kg/injection, schedule: Q04DX003 (ip), vehicle: gum acacia) 102 % of control; (endpoint: mean survival time, dose: 400.0 mg/kg/injection, schedule: Q01DX009 (ip), vehicle: gum acacia) 87 % of control; (endpoint: mean survival time, dose: 400.0 mg/kg/injection, schedule: Q04DX003 (ip), vehicle: gum acacia) 98 % of control.

`Cn1c(CO)nc2c1c(=O)[nH]c(=O)n2C`: the T/C (endpoint: mean survival time, dose: 100.0 mg/kg/injection, schedule: Q01DX001 (ip), vehicle: other) was 98 % of control; the T/C (endpoint: mean survival time, dose: 200.0 mg/kg/injection, schedule: Q01DX001 (ip), vehicle: other) was 98 % of control; the T/C (endpoint: mean survival time, dose: 400.0 mg/kg/injection, schedule: Q01DX001 (ip), vehicle: other) was 95 % of control.

In the case of `Oc1ccc(C(=S)N2CCOCC2)cc1`, the T/C was 97 % of control under setting [1], 97 % of control under setting [11] and 98 % of control under setting [12].

For the molecule `O=C(O)c1cncc(-c2ccccc2)c1`, the T/C (endpoint: mean survival time, dose: 100.0 mg/kg/injection, schedule: Q04DX002 (ip), vehicle: saline with Tween-80) is 104 % of control and the T/C (endpoint: mean survival time, dose: 200.0 mg/kg/injection, schedule: Q04DX002 (ip), vehicle: saline with Tween-80) was 111 % of control.

`COc1ccccc1CN1CCCN(Cc2ccccc2OC)C1c1cc(Br)c(OC)c(OC)c1`: the T/C reads like this: (endpoint: mean survival time, dose: 100.0 mg/kg/injection, schedule: Q01DX001 (ip), vehicle: carboxymethylcellulose (CMC)) 91 % of control; (endpoint: mean survival time, dose: 200.0 mg/kg/injection, schedule: Q01DX001 (ip), vehicle: carboxymethylcellulose (CMC)) 91 % of control; (endpoint: mean survival time, dose: 400.0 mg/kg/injection, schedule: Q01DX001 (ip), vehicle: carboxymethylcellulose (CMC)) 87 % of control.

Turning to `Cc1ccc(C)c(NC(=O)c2ccc(Cl)c(Cl)c2)c1`, the T/C (endpoint: mean survival time, dose: 1.5 mg/kg/injection, schedule: Q01DX009 (ip), vehicle: Klucel (hydroxypropylcellulose) (HPC)) is 92 % of control; the T/C (endpoint: mean survival time, dose: 3.0 mg/kg/injection, schedule: Q01DX009 (ip), vehicle: Klucel (hydroxypropylcellulose) (HPC)) is 99 % of control; the T/C (endpoint: mean survival time, dose: 6.0 mg/kg/injection, schedule: Q01DX009 (ip), vehicle: Klucel (hydroxypropylcellulose) (HPC)) is 97 % of control; the T/C (endpoint: mean survival time, dose: 6.25 mg/kg/injection, schedule: Q01DX009 (ip), vehicle: Klucel (hydroxypropylcellulose) (HPC)) is 88 % of control; the T/C (endpoint: mean survival time, dose: 50.0 mg/kg/injection, schedule: Q01DX009 (ip), vehicle: Klucel (hydroxypropylcellulose) (HPC)) is 86 % of control; the T/C under setting [1] is 93 % of control. Also, the T/C was 91 % of control under setting [11]; 86 % of control (endpoint: mean survival time, dose: 400.0 mg/kg/injection, schedule: Q01DX009 (ip), vehicle: Klucel (hydroxypropylcellulose) (HPC)); 90 % of control under setting [12].

On to `CCCn1c2c(c(=O)n(CC)c1=O)S(=O)C(OCC)C(=O)N2` (stereo not drawn), for which the T/C is 92 % of control (endpoint: mean survival time, dose: 78.0 mg/kg/injection, schedule: Q01DX Z (ip), vehicle: other); 97 % of control and 104 % of control (endpoint: mean survival time, dose: 116.0 mg/kg/injection, schedule: Q01DX Z (ip), vehicle: other); 98 % of control and 87 % of control (endpoint: mean survival time, dose: 175.0 mg/kg/injection, schedule: Q01DX Z (ip), vehicle: other); 93 % of control and 103 % of control (endpoint: mean survival time, dose: 262.5 mg/kg/injection, schedule: Q01DX Z (ip), vehicle: other).

For `Nc1nc(N=Nc2ccc(O)cc2)cc(=O)[nH]1`, the T/C reads like this: (endpoint: mean survival time, dose: 50.0 mg/kg/injection, schedule: Q01DX009 (ip), vehicle: other) 102 % of control; (endpoint: mean survival time, dose: 100.0 mg/kg/injection, schedule: Q01DX009 (ip), vehicle: other) 107 % of control; (endpoint: mean survival time, dose: 100.0 mg/kg/injection, schedule: Q04DX002 (ip), vehicle: other) 105 % of control; (endpoint: mean survival time, dose: 200.0 mg/kg/injection, schedule: Q01DX009 (ip), vehicle: other) 94 % of control; (endpoint: mean survival time, dose: 200.0 mg/kg/injection, schedule: Q04DX002 (ip), vehicle: other) 105 % of control; (endpoint: mean survival time, dose: 400.0 mg/kg/injection, schedule: Q01DX009 (ip), vehicle: other) 103 % of control. In addition, for the setting “endpoint: mean survival time, dose: 400.0 mg/kg/injection, schedule: Q04DX002 (ip), vehicle: other”, the T/C is 99 % of control.

Regarding `NCCSC12CC3CC(CC(C3)C1)C2`, the T/C is 90 % of control (endpoint: mean survival time, dose: 100.0 mg/kg/injection, schedule: Q04DX002 (ip), vehicle: saline); 94 % of control (endpoint: mean survival time, dose: 200.0 mg/kg/injection, schedule: Q04DX002 (ip), vehicle: saline); 96 % of control (endpoint: mean survival time, dose: 400.0 mg/kg/injection, schedule: Q04DX002 (ip), vehicle: saline).

Take `CCCCCCCCCCCCCCCCCCCCCC(=O)Nc1ccn(C2OC(CO)C(O)C2O)c(=O)n1` (stereo not drawn): the T/C (endpoint: median survival time, dose: 25.0 mg/kg/injection, schedule: Q01DX009 (ip), vehicle: saline with Tween-80) is 217 % of control; the T/C (endpoint: median survival time, dose: 50.0 mg/kg/injection, schedule: Q01DX009 (ip), vehicle: saline with Tween-80) is 234 % of control; the T/C (endpoint: median survival time, dose: 100.0 mg/kg/injection, schedule: Q01DX009 (ip), vehicle: saline with Tween-80) is 234 % of control; the T/C (endpoint: median survival time, dose: 200.0 mg/kg/injection, schedule: Q01DX009 (ip), vehicle: saline with Tween-80) was 382 % of control; the T/C (endpoint: median survival time, dose: 400.0 mg/kg/injection, schedule: Q01DX009 (ip), vehicle: saline with Tween-80) was 340 % of control.
